Laboratory results reported in the supplement of paper PMC10627819.

Legend:
S. aureus DSM 20231 [1] = assay: fitness (endpoint OD595 vs no drug) (fraction); higher = more growth
Summary of the method: (§1)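 With the first reading as background, OD595 was measured every 30 min for 14 h in 384-well plates kept at 37 °C and inoculated at OD595 0.01. TSB, LB Lennox or CY was the medium. Fitness is the optical density at the transition into stationary phase divided by the robust mean of no-drug control wells, with a cap of 1.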

B. subtilis 168 [2] = assay: as above
Summary of the method: as §1

S. aureus Newman [3] = assay: as above
Summary of the method: as §1

S. pneumoniae D39V [4] = assay: as above
Summary of the method: as §1

S. aureus DSM 20231 [5] = assay: Bliss interaction score (quartile over a dose matrix) (fitness difference); higher = more antagonism (negative = synergy)
Summary of the method: (§2)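 The Bliss score is observed fitness minus expected fitness, where the expected value is the product of single-drug fitness values inferred from combination data. Fitness is OD595 at entry into stationary phase normalised to the plate's robust no-drug mean and capped at 1. Scores are reported as quartiles spanning technical, biological and donor/recipient replicates.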

B. subtilis 168 [6] = assay: as above
Summary of the method: as §2

S. aureus Newman [7] = assay: as above
Summary of the method: as §2

S. pneumoniae D39V [8] = assay: as above
Summary of the method: as §2
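Throughout, for Bliss interaction score (quartile over a dose matrix): first quartile when negative (synergy) and third quartile when positive (antagonism).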
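Throughout, for fitness (endpoint OD595 vs no drug): OD595 on entry to stationary phase over no-drug wells; at most 1.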

CO/N=C(\C(=O)N[C@@H]1C(=O)N2C(C(=O)O)=C(COC(C)=O)CS[C@H]12)c1csc(N)n1 [Cefotaxime] + CN[C@@H]1[C@H](O)[C@H](NC)[C@H]2O[C@@]3(O)C(=O)C[C@@H](C)O[C@H]3O[C@@H]2[C@H]1O [Spectinomycin]
one replicate
Settings | fitness
B. subtilis 168 [2], first compound 0.00775 µg/mL, partner 2 µg/mL | 0.794
B. subtilis 168 [2], first compound 0.00775 µg/mL, partner 4 µg/mL | 0.796
B. subtilis 168 [2], first compound 0.00775 µg/mL, partner 8 µg/mL | 0.816
B. subtilis 168 [2], first compound 0.0155 µg/mL, partner 2 µg/mL | 0.671
B. subtilis 168 [2], first compound 0.0155 µg/mL, partner 4 µg/mL | 0.748
B. subtilis 168 [2], first compound 0.0155 µg/mL, partner 8 µg/mL | 0.571
B. subtilis 168 [2], first compound 0.031 µg/mL, partner 2 µg/mL | 0.521
B. subtilis 168 [2], first compound 0.031 µg/mL, partner 4 µg/mL | 0.519
B. subtilis 168 [2], first compound 0.031 µg/mL, partner 8 µg/mL | 0.258
S. aureus DSM 20231 [1], first compound 0.039 µg/mL, partner 4 µg/mL | 0.72
S. aureus DSM 20231 [1], first compound 0.039 µg/mL, partner 8 µg/mL | 0.747
S. aureus DSM 20231 [1], first compound 0.039 µg/mL, partner 16 µg/mL | 0.707
S. aureus DSM 20231 [1], first compound 0.078 µg/mL, partner 32 µg/mL | 0.597
S. aureus DSM 20231 [1], first compound 0.078 µg/mL, partner 64 µg/mL | 0.0453
S. aureus DSM 20231 [1], first compound 0.156 µg/mL, partner 32 µg/mL | 0.632
S. aureus DSM 20231 [1], first compound 0.156 µg/mL, partner 64 µg/mL | 0.0727
S. aureus DSM 20231 [1], first compound 0.312 µg/mL, partner 32 µg/mL | 0.583
S. aureus DSM 20231 [1], first compound 0.312 µg/mL, partner 64 µg/mL | 0.0287
S. aureus Newman [3], first compound 0.078 µg/mL, partner 32 µg/mL | 0.328
S. aureus Newman [3], first compound 0.078 µg/mL, partner 64 µg/mL | 0.0751
S. aureus Newman [3], first compound 0.156 µg/mL, partner 32 µg/mL | 0.0776
S. aureus Newman [3], first compound 0.156 µg/mL, partner 64 µg/mL | 0.0848
S. aureus Newman [3], first compound 0.312 µg/mL, partner 32 µg/mL | 0.0307
S. aureus Newman [3], first compound 0.312 µg/mL, partner 64 µg/mL | 0.0805
S. aureus Newman [3], first compound 0.625 µg/mL, partner 4 µg/mL | 0.0066
S. aureus Newman [3], first compound 0.625 µg/mL, partner 8 µg/mL | 0.0296
S. aureus Newman [3], first compound 0.625 µg/mL, partner 16 µg/mL | 0.021
S. aureus Newman [3], first compound 1.25 µg/mL, partner 4 µg/mL | 0.0276
S. aureus Newman [3], first compound 1.25 µg/mL, partner 8 µg/mL | 0.0141
S. aureus Newman [3], first compound 1.25 µg/mL, partner 16 µg/mL | 0.0089
S. aureus Newman [3], first compound 2.5 µg/mL, partner 4 µg/mL | 0.0608
S. aureus Newman [3], first compound 2.5 µg/mL, partner 8 µg/mL | 0.0355
S. aureus Newman [3], first compound 2.5 µg/mL, partner 16 µg/mL | 0.0355

fitness
Settings | partner 2 µg/mL | partner 4 µg/mL | partner 8 µg/mL | partner 16 µg/mL
B. subtilis 168 [2], first compound 0.5 µg/mL | 0.234 | 0.139 | 0.0989 | –
B. subtilis 168 [2], first compound 1 µg/mL | 0.11 | 0.0503 | 0.0323 | –
B. subtilis 168 [2], first compound 2 µg/mL | 0.0973 | 0.0906 | 0.091 | –
S. aureus DSM 20231 [1], first compound 0.078 µg/mL | – | 0.791 | 0.747 | 0.714
S. aureus DSM 20231 [1], first compound 0.156 µg/mL | – | 0.704 | 0.754 | 0.711
S. aureus DSM 20231 [1], first compound 0.312 µg/mL | – | 0.68 | 0.694 | 0.596
S. aureus Newman [3], first compound 0.078 µg/mL | – | 0.697 | 0.716 | 0.686
S. aureus Newman [3], first compound 0.156 µg/mL | – | 0.582 | 0.59 | 0.503
S. aureus Newman [3], first compound 0.312 µg/mL | – | 0.272 | 0.201 | 0.0958
S. pneumoniae D39V [4], first compound 0.0018 µg/mL | – | 0.985 | 0.944 | 0.9
S. pneumoniae D39V [4], first compound 0.0035 µg/mL | – | 0.97 | 0.944 | 0.847
S. pneumoniae D39V [4], first compound 0.007 µg/mL | – | 0.834 | 0.852 | 0.8

Settings | Bliss interaction score
B. subtilis 168 [6] | -0.0623
S. aureus DSM 20231 [5] | 0.0658
S. aureus Newman [7] | -0.0972
S. pneumoniae D39V [8] | 0.108
